Target: T1, TRAP1 enzyme (Homo sapiens, UniProt Q12931)
T1 sequence (Q12931 60-704): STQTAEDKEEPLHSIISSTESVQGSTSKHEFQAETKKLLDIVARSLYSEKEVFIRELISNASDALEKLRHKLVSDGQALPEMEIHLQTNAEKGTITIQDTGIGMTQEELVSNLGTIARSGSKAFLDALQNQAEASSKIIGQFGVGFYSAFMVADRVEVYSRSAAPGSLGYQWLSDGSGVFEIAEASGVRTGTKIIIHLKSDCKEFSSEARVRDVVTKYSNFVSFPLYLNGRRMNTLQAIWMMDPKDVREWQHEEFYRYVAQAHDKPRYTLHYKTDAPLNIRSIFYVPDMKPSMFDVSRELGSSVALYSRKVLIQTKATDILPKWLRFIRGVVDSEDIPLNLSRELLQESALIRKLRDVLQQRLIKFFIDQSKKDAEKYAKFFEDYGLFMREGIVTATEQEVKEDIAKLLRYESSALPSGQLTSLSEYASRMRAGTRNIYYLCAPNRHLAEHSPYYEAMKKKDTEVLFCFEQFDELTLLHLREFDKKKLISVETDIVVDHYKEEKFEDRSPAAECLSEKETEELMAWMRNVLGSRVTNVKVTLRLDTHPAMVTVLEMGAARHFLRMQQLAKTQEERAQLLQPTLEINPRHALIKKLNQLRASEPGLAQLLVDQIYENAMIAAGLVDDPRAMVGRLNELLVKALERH
Assay: ADP Glo assay (ATPase activity of TRAP1)
Format: biochemical
Conditions: for EC50: 150 nM Trap1, 20 µM ATP, concentration for half maximal activation, read-out: ADP GLO DRC: GeoMean EC50; for Emax: maximal percent activation, read-out: ADP GLO DRC: Mean Emax
Method: Potency of test compounds to modulate the ATPase activity of TRAP1 enzyme was evaluated using ADP Glo assay. The assay is based on quantification of the ADP generated from ATP in the ATPase reaction. The assay is performed in two steps; first, after the ATPase reaction, an equal volume of ADP-Glo™ Reagent is added to terminate the ATPase reaction and deplete the remaining ATP. Second, the Kinase Detection Reagent is added to simultaneously convert ADP to ATP and allow the newly synthesized ATP to be measured using a luciferase/luciferin reaction.
All the assays were carried out in a 384-well Proxiplate. The buffer used was 25 mM Pipes pH-7.5, 40 mM KCl, 0.05 mM MgCl2, 0.025 % BSA, 0.316 mM EGTA, 0.003% Empigen, 0.01% Igepal. 150 nM Trap1 enzyme was incubated with various concentrations of the test compound (0.79 µM - 100 µM) at 37° C. for 30 mins (except in blank wells). 20 µM ATP was added to each well to start the reaction. The plate was spun for 1 min at 1200 rpm and then incubated at 37° C. for 60 mins. 5 µl of ADP Glo reagent was added to all the wells and spun the plate for 1 min at 1200 rpm and kept it on a shaker at ambient temperature for 60 mins. 10 µl of kinase detection mix was added to all the wells and the plate was read for Luminescence at 495 nm. The amount of ADP released was estimated from ATP/ADP standard curve generated at the same experimental conditions. Emax (Maximal percent activation) and EC50 (concentration for half maximal activation ) were estimated by fitting the dose response data to a sigmoidal curve fitting equation using Graphpad Prism software V. 8.

Work on `CC(C)n1cc(C(=O)Nc2ccc3c(c2)S(=O)(=O)N(c2ccc(C(F)(F)F)cc2)CCO3)cn1` [Compound 2192] yielded an EC50 of 20 to 30 µM and an Emax of 129 to 149%.
In the case of `O=C(Nc1ccc2c(c1)S(=O)(=O)N(c1ccc(C(F)(F)F)cc1)CCO2)c1ccc(O)nn1` [Compound 2194], the EC50 is reported as under 20 µM and the Emax is reported as 129 to 149%.
In the case of `O=C(Nc1ccc2c(c1)S(=O)(=O)N(c1ccc(C(F)(F)F)cc1)CCO2)c1ccccn1` [Compound 2197], the EC50 is reported as 30 to 100 µM and the Emax is reported as 129 to 149%.
Compound `O=C(Nc1ccc2c(c1)S(=O)(=O)N(c1ccc(C(F)(F)F)cc1)CCO2)c1c(F)cncc1F` [Compound 2198] has an EC50 of 20 to 30 µM and an Emax of 150 to 200%.
For `Cc1cnccc1C(=O)Nc1ccc2c(c1)S(=O)(=O)N(c1ccc(C(F)(F)F)cc1)CCO2` [Compound 2199], the EC50 was 20 to 30 µM and the Emax was 150 to 200%.
In the case of `Cc1ncc(C(=O)Nc2ccc3c(c2)S(=O)(=O)N(c2ccc(C(F)(F)F)cc2)CCO3)cn1` [Compound 2200], the EC50 is reported as 30 to 100 µM and the Emax is reported as 150 to 200%.
`CC(C)c1oncc1C(=O)Nc1ccc2c(c1)S(=O)(=O)N(c1ccc(C(F)(F)F)cc1)CCO2` [Compound 2202] was tested, and the EC50 was 30 to 100 µM and the Emax was 150 to 200%.
For `Cc1ncncc1C(=O)Nc1ccc2c(c1)S(=O)(=O)N(c1ccc(C(F)(F)F)cc1)CCO2` [Compound 2206], the EC50 was 30 to 100 µM and the Emax was 150 to 200%.
For `COc1cnccc1C(=O)Nc1ccc2c(c1)S(=O)(=O)N(c1ccc(C(F)(F)F)cc1)CCO2` [Compound 2209], the EC50 was 20 to 30 µM and the Emax was 129 to 149%.
`Cc1cnc(C(=O)Nc2ccc3c(c2)S(=O)(=O)N(c2ccc(C(F)(F)F)cc2)CCO3)nc1` [Compound 2210] was tested, and the EC50 was under 20 µM and the Emax was 150 to 200%.
In the case of `CCn1cncc1C(=O)Nc1ccc2c(c1)S(=O)(=O)N(c1ccc(C(F)(F)F)cc1)CCO2` [Compound 2213], the EC50 is reported as under 20 µM and the Emax is reported as 150 to 200%.
`Cc1nccnc1C(=O)Nc1ccc2c(c1)S(=O)(=O)N(c1ccc(C(F)(F)F)cc1)CCO2` [Compound 2215] was tested, and the EC50 was 30 to 100 µM and the Emax was 129 to 149%.
`Cc1nn(C)cc1C(=O)Nc1ccc2c(c1)S(=O)(=O)N(c1ccc(C(F)(F)F)cc1)CCO2` [Compound 2219] showed an EC50 of 30 to 100 µM and an Emax of over 200%.
`Cn1c(C(=O)Nc2ccc3c(c2)S(=O)(=O)N(c2ccc(C(F)(F)F)cc2)CCO3)cccc1=O` [Compound 2221] showed an EC50 of 30 to 100 µM and an Emax of 150 to 200%.
`COc1cc(C(=O)Nc2ccc3c(c2)S(=O)(=O)N(c2ccc(C(F)(F)F)cc2)CCO3)n(C)n1` [Compound 2222] showed an EC50 of under 20 µM and an Emax of 150 to 200%.
In the case of `O=C(Nc1ccc2c(c1)S(=O)(=O)N(c1ccc(C(F)(F)F)cc1)CCO2)c1cccnn1` [Compound 2224], the EC50 is reported as 30 to 100 µM and the Emax is reported as 150 to 200%.
Work on `Cn1nncc1C(=O)Nc1ccc2c(c1)S(=O)(=O)N(c1ccc(C(F)(F)F)cc1)CCO2` [Compound 2226] yielded an EC50 of 30 to 100 µM and an Emax of 150 to 200%.
`Cc1nscc1C(=O)Nc1ccc2c(c1)S(=O)(=O)N(c1ccc(C(F)(F)F)cc1)CCO2` [Compound 2227] showed an EC50 of under 20 µM and an Emax of 129 to 149%.
`Cn1nc(C(=O)Nc2ccc3c(c2)S(=O)(=O)N(c2ccc(C(F)(F)F)cc2)CCO3)ccc1=O` [Compound 2228] gave an EC50 of 20 to 30 µM and an Emax of 129 to 149%.
Compound `COc1nccnc1C(=O)Nc1ccc2c(c1)S(=O)(=O)N(c1ccc(C(F)(F)F)cc1)CCO2` [Compound 2230] has an EC50 of 20 to 30 µM and an Emax of 150 to 200%.
For `O=C(Nc1ccc2c(c1)S(=O)(=O)N(c1ccc(C(F)(F)F)cc1)CCO2)c1ccncc1` [Compound 2234], the EC50 was 20 to 30 µM and the Emax was 150 to 200%.
`Cc1ncc(C(=O)Nc2ccc3c(c2)S(=O)(=O)N(c2ccc(C(F)(F)F)cc2)CCO3)c(C)n1` [Compound 2236] gave an EC50 of 30 to 100 µM and an Emax of 150 to 200%.
`O=C(Nc1ccc2c(c1)S(=O)(=O)N(c1ccc(C(F)(F)F)cc1)CCO2)c1cccnc1` [Compound 2240] showed an EC50 of 30 to 100 µM and an Emax of 150 to 200%.
Compound `Cn1cc(C(=O)Nc2ccc3c(c2)S(=O)(=O)N(c2ccc(C(F)(F)F)cc2)CCO3)cn1` [Compound 2241] has an EC50 of 20 to 30 µM and an Emax of 150 to 200%.
`Cc1nnccc1C(=O)Nc1ccc2c(c1)S(=O)(=O)N(c1ccc(C(F)(F)F)cc1)CCO2` [Compound 2242] gave an EC50 of 30 to 100 µM and an Emax of over 200%.
With `COc1ncncc1C(=O)Nc1ccc2c(c1)S(=O)(=O)N(c1ccc(C(F)(F)F)cc1)CCO2` [Compound 2245] the EC50 was 20 to 30 µM and the Emax was 129 to 149%.
Compound `Cc1nc(C)c(C(=O)Nc2ccc3c(c2)S(=O)(=O)N(c2ccc(C(F)(F)F)cc2)CCO3)s1` [Compound 2248] has an EC50 of 30 to 100 µM and an Emax of 150 to 200%.
In the case of `Cn1cnc(C(=O)Nc2ccc3c(c2)S(=O)(=O)N(c2ccc(C(F)(F)F)cc2)CCO3)c1` [Compound 2249], the EC50 is reported as 30 to 100 µM and the Emax is reported as 150 to 200%.
`CCn1nccc1C(=O)Nc1ccc2c(c1)S(=O)(=O)N(c1ccc(C(F)(F)F)cc1)CCO2` [Compound 2254] showed an EC50 of under 20 µM and an Emax of 129 to 149%.
Work on `COCc1oncc1C(=O)Nc1ccc2c(c1)S(=O)(=O)N(c1ccc(C(F)(F)F)cc1)CCO2` [Compound 2257] yielded an EC50 of 30 to 100 µM and an Emax of 150 to 200%.
`CC(C)n1cnc(C(=O)Nc2ccc3c(c2)S(=O)(=O)N(c2ccc(C(F)(F)F)cc2)CCO3)n1` [Compound 2258] showed an EC50 of 20 to 30 µM and an Emax of 129 to 149%.
Work on `Cc1ccnc(C(=O)Nc2ccc3c(c2)S(=O)(=O)N(c2ccc(C(F)(F)F)cc2)CCO3)n1` [Compound 2261] yielded an EC50 of 30 to 100 µM and an Emax of 150 to 200%.
`O=C(Nc1ccc2c(c1)S(=O)(=O)N(c1ccc(C(F)(F)F)cc1)CCO2)c1cnccc1F` [Compound 2264] gave an EC50 of 20 to 30 µM and an Emax of 129 to 149%.
`CCc1nn(C)cc1C(=O)Nc1ccc2c(c1)S(=O)(=O)N(c1ccc(C(F)(F)F)cc1)CCO2` [Compound 2265] showed an EC50 of under 20 µM and an Emax of 150 to 200%.
For `Cn1cccc(C(=O)Nc2ccc3c(c2)S(=O)(=O)N(c2ccc(C(F)(F)F)cc2)CCO3)c1=O` [Compound 2268], the EC50 was under 20 µM and the Emax was 150 to 200%.
Work on `Cc1cnncc1C(=O)Nc1ccc2c(c1)S(=O)(=O)N(c1ccc(C(F)(F)F)cc1)CCO2` [Compound 2275] yielded an EC50 of 30 to 100 µM and an Emax of 150 to 200%.
For `O=C(Nc1ccc2c(c1)S(=O)(=O)N(c1ccc(C(F)(F)F)cc1)CCO2)c1cccnc1O` [Compound 2280], the EC50 was 30 to 100 µM and the Emax was 150 to 200%.
In the case of `Cc1ncccc1C(=O)Nc1ccc2c(c1)S(=O)(=O)N(c1ccc(C(F)(F)F)cc1)CCO2` [Compound 2286], the EC50 is reported as 30 to 100 µM and the Emax is reported as over 200%.
Compound `COc1cccnc1C(=O)Nc1ccc2c(c1)S(=O)(=O)N(c1ccc(C(F)(F)F)cc1)CCO2` [Compound 2288] has an EC50 of under 20 µM and an Emax of 150 to 200%.
With `O=C(Nc1ccc2c(c1)S(=O)(=O)N(c1ccc(C(F)(F)F)cc1)CCO2)c1ccnc(CO)c1` [Compound 2290] the EC50 was 30 to 100 µM and the Emax was over 200%.
In the case of `O=C(Nc1ccc2c(c1)S(=O)(=O)N(c1ccc(C(F)(F)F)cc1)CCO2)c1cccc(CO)n1` [Compound 2291], the EC50 is reported as under 20 µM and the Emax is reported as 150 to 200%.
`Cn1ccc(C(=O)Nc2ccc3c(c2)S(=O)(=O)N(c2ccc(C(F)(F)F)cc2)CCO3)n1` [Compound 2294] showed an EC50 of under 20 µM and an Emax of 150 to 200%.
For `Cc1c(C(=O)Nc2ccc3c(c2)S(=O)(=O)N(c2ccc(C(F)(F)F)cc2)CCO3)cnn1C` [Compound 2295], the EC50 was 30 to 100 µM and the Emax was over 200%.
Work on `O=C(Nc1ccc2c(c1)S(=O)(=O)N(c1ccc(C(F)(F)F)cc1)CCO2)c1ccc(CO)cn1` [Compound 2296] yielded an EC50 of under 20 µM and an Emax of 150 to 200%.

From patent publication US20230218632A1, “CYCLIC SULFONAMIDE DERIVATIVES AS TRAP1 MODULATORS AND USES THEREOF” (Amathus Therapeutics, Inc., priority 2020, published 2023)
